Experimental data: US20080009418A1, “Selective Inhibitors” (Alchemia LTD., priority 2004, published 2008)

Assays:
Details in all cases: compound at 10 μM
[1] = target: T1, Human melanin-concentrating hormone (MCH1) (Homo sapiens, UniProt Q99705); experiment: Radioligand binding, human melanin-concentrating hormone MCH1 membranes, FlashPlate, [125I]-S36057
T1 construct: purchased Perkin Elmer Biosignal
In short: (§1)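 Cloned human receptor membranes were coated onto FlashPlate wells and incubated with radioligand and compound (added from a 0.5 mM DMSO daughter plate) for 1 hour at room temperature in the dark. Scintillation counting gave percent inhibition, with DMSO defining total and reference ligand defining non-specific binding.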

Human neurokinin (NK1) = target: T2, Human neurokinin (NK1) (Homo sapiens, UniProt P25103); experiment: Radioligand binding, human neurokinin NK1 membranes, filtration, [125I]-Substance P
T2 construct: purchased Perkin Elmer Biosignal
In short: (§2)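 Membranes from cloned human receptors were incubated with compound and radioligand for 1 hour at room temperature. Bound ligand was collected on 0.3% PEI-soaked filters, washed with cold 50 mM Tris-HCl pH 7.4, and counted by scintillation. Percent inhibition was computed against DMSO totals and reference-ligand nonspecific wells.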

[2] = target: T3, Human neuropeptide Y (NPY-Y1) (Homo sapiens, UniProt P25929); experiment: Radioligand binding, human neuropeptide Y NPY-Y1 membranes, FlashPlate, [125I]-PYY
T3 construct: purchased Perkin Elmer Biosignal
T3 sequence (P25929 1-384): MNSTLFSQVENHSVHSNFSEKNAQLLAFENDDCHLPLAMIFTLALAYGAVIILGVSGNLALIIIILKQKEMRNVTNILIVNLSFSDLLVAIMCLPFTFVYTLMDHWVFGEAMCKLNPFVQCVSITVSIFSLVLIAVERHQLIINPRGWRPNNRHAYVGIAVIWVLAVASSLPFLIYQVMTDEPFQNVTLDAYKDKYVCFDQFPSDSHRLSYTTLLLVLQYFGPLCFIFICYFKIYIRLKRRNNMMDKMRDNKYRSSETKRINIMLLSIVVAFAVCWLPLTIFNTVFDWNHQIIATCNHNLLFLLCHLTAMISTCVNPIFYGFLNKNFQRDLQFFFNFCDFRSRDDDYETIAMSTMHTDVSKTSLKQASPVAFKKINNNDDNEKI
In short: as §1

Human Melanocortin (MC3) = target: T4, Human Melanocortin (MC3) (Homo sapiens, UniProt P41968); experiment: Radioligand binding, human melanocortin MC3 membranes, FlashPlate, [125I]-NDP-αMSH
T4 construct: purchased Perkin Elmer Biosignal
In short: as §1

Human melanocortin (MC5) = target: T5, Human melanocortin (MC5) (Homo sapiens, UniProt P33032); experiment: Radioligand binding, human melanocortin MC5 membranes, FlashPlate, [125I]-NDP-αMSH
T5 construct: purchased Perkin Elmer Biosignal
In short: as §1

Human δ-opioid (DOP) = target: T6, Human δ-opioid (DOP) (Homo sapiens, UniProt P41143); experiment: Radioligand binding, human δ-opioid (DOP) membranes, FlashPlate, [3H]-Bremazocine
T6 construct: purchased Perkin Elmer Biosignal
In short: as §1

Human opioid (ORL1) = target: T7, Human opioid (ORL1) (Homo sapiens, UniProt P41146); experiment: Radioligand binding, human opioid ORL1 membranes, FlashPlate, [125I]-Nociceptin
T7 construct: purchased Perkin Elmer Biosignal
In short: as §1

Mouse urotensin (mUR2) = target: T8, Mouse urotensin (mUR2) (Mus musculus, UniProt Q8VIH9); experiment: Radioligand binding, mouse urotensin mUR2 membranes, FlashPlate, [125I]-Urotensin II
T8 construct: purchased Perkin Elmer Biosignal
T8 sequence (Q8VIH9 1-385): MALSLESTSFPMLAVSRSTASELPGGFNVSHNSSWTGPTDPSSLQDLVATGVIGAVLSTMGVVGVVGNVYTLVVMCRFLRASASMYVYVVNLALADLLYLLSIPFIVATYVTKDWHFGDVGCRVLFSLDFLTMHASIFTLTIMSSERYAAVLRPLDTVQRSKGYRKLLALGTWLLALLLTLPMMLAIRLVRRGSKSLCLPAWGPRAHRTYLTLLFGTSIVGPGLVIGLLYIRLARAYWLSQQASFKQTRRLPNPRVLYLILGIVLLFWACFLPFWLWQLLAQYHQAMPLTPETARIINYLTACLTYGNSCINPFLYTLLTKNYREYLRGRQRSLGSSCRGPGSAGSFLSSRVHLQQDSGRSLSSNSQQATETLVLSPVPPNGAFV
In short: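 Cloned mouse urotensin (mUR2) receptor membranes from Perkin Elmer Biosignal were immobilized in FlashPlate microplates using a proprietary coating. Each well got 19.5 μl buffer, then 0.5 μl of DMSO, reference ligand, or compound. Adding 5 μl of [125I]-Urotensin II, diluted to 5× final concentration in binding buffer, started binding. Plates were sealed with TopSeal-A and incubated 1 hour at room temperature in the dark. Wells were counted for 30 seconds each on a TopCount after a 60-second delay, and percentage inhibition was calculated.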

Human Melanocortin (MC4) = target: T9, Human Melanocortin (MC4) (Homo sapiens, UniProt P32245); experiment: Radioligand binding, human melanocortin MC4 membranes, FlashPlate, [125I]-NDP-αMSH
T9 construct: purchased Perkin Elmer Biosignal
In short: as §1

Human μ-opioid (MOP) = target: T10, Human μ-opioid (MOP) (Homo sapiens, UniProt P35372); experiment: Radioligand binding, human μ-opioid (MOP) membranes, FlashPlate, [3H]-Naloxone
T10 construct: purchased Perkin Elmer Biosignal
In short: as §1

Human κ-Opioid (KOP) = target: T11, Human κ-Opioid (KOP) (Homo sapiens, UniProt P41145); experiment: Radioligand binding, human κ-opioid (KOP) membranes, filtration, [3H]-Diprenorphine
T11 construct: purchased Perkin Elmer Biosignal
In short: as §2

T2 sequence (P25103 whole entry): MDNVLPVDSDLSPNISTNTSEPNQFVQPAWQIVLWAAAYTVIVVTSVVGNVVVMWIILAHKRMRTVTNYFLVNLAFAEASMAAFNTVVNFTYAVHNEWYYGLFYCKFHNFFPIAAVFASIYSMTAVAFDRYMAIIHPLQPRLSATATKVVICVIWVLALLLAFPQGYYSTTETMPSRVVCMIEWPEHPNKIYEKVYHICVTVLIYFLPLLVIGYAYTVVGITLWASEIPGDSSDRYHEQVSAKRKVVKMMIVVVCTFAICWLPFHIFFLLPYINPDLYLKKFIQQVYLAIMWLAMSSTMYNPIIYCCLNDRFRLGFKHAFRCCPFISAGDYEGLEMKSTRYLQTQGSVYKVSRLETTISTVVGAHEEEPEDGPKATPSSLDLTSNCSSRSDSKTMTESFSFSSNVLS
T10 sequence (P35372 whole entry): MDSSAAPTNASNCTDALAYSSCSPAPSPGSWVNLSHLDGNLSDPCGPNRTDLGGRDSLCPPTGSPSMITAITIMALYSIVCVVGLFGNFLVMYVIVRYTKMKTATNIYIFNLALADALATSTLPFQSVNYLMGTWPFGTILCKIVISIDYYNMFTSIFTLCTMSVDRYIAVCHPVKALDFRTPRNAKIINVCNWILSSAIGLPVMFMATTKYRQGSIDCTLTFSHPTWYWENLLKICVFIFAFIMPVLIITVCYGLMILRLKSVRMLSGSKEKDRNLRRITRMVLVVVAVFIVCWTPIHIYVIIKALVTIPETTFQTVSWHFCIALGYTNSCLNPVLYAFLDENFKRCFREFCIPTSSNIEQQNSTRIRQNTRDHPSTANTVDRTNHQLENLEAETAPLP
T5 sequence (P33032 whole entry): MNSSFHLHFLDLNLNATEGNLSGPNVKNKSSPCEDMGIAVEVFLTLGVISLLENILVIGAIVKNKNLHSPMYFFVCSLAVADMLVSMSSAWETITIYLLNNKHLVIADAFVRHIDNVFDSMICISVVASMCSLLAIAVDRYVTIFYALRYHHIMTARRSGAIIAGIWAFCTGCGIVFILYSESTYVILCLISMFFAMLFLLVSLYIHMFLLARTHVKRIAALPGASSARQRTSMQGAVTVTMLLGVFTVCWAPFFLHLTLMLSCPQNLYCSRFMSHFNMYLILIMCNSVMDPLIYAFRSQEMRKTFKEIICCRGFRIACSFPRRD
T6 sequence (P41143 whole entry): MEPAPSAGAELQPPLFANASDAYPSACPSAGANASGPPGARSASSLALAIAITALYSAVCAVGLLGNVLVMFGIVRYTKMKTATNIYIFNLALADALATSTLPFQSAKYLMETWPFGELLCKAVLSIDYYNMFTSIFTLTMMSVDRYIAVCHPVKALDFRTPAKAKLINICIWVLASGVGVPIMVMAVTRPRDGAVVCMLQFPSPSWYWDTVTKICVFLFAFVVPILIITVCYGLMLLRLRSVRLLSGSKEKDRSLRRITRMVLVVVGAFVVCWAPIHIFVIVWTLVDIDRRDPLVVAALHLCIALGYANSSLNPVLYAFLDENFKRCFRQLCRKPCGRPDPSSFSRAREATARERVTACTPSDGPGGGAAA
T7 sequence (P41146 whole entry): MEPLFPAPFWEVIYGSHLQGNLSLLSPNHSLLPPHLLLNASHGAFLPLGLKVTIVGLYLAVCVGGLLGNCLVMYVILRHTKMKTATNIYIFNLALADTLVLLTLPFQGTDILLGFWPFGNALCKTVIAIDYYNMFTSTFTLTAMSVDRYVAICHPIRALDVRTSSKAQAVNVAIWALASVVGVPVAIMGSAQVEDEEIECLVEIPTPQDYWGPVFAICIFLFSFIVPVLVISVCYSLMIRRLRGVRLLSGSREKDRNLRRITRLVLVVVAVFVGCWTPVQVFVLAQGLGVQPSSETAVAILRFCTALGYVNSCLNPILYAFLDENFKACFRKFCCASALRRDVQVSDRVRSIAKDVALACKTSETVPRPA
T9 sequence (P32245 whole entry): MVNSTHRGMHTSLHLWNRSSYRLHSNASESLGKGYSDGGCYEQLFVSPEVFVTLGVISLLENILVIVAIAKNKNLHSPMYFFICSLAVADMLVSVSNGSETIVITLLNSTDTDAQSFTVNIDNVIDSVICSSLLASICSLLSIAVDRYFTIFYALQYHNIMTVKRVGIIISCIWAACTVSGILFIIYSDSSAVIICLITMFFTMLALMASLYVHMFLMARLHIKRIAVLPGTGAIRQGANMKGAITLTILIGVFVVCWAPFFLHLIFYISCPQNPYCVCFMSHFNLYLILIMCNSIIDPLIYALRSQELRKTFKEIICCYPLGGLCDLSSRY
T1 sequence (Q99705 whole entry): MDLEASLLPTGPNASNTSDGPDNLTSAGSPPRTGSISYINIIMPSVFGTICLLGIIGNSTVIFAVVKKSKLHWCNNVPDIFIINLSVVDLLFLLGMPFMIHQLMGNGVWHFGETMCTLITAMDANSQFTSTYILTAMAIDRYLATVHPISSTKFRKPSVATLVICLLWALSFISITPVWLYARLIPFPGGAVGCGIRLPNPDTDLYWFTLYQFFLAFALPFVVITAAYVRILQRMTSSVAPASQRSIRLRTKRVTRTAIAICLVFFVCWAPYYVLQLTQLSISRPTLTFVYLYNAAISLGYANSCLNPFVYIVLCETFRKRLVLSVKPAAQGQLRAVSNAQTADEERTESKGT
T11 sequence (P41145 whole entry): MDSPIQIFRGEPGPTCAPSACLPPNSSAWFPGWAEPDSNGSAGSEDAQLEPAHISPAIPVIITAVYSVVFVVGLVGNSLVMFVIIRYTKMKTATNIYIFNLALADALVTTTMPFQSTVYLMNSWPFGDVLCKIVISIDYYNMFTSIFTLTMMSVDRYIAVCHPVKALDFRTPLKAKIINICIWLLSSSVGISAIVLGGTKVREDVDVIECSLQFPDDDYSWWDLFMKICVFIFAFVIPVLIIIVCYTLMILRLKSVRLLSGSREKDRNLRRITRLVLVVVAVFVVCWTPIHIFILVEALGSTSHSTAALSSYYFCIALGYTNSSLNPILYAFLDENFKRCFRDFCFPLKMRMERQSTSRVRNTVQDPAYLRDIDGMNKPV
T4 sequence (P41968 whole entry): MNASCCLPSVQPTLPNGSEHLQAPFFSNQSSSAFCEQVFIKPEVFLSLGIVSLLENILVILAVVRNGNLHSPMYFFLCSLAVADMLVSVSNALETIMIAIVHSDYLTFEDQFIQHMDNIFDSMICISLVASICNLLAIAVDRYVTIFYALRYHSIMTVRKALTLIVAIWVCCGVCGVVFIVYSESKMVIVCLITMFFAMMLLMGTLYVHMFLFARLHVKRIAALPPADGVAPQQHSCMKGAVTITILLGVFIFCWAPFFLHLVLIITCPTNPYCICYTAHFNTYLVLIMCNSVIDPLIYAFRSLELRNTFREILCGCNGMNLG

N=C(N)NCCC(=O)N[C@H]1C(OCc2ccc(Cl)cc2)O[C@H](COCc2ccc3ccccc3c2)[C@@H](O)[C@@H]1OCc1ccc(Cl)cc1 (stereo partly shown) [compound 523]
A6: inhibition of radioligand binding, human melanin-concentrating hormone (MCH1) ([1]; [125I]-S36057): + (“+” indicates greater than 50% inhibition at 10 μM)
A8: inhibition of radioligand binding, human neurokinin (NK1) (Human neurokinin (NK1); [125I]-Substance P): + (“+” indicates greater than 50% inhibition at 10 μM)
A9: inhibition of radioligand binding, human neuropeptide Y (NPY-Y1) ([2]; [125I]-PYY, 10 µM): − (“−” indicates less than 50% inhibition at 10 μM)
A3: inhibition of radioligand binding, human melanocortin (MC3) (Human Melanocortin (MC3); [125I]-NDP-αMSH): + (“+” indicates greater than 50% inhibition at 10 μM)
A5: inhibition of radioligand binding, human melanocortin (MC5) (Human melanocortin (MC5); [125I]-NDP-αMSH): + (“+” indicates greater than 50% inhibition at 10 μM)
A1: inhibition of radioligand binding, human δ-opioid (DOP) (Human δ-opioid (DOP); [3H]-Bremazocine): − (“−” indicates less than 50% inhibition at 10 μM)
A10: inhibition of radioligand binding, human opioid (ORL1) (Human opioid (ORL1); [125I]-Nociceptin): + (“+” indicates greater than 50% inhibition at 10 μM)
A11: inhibition of radioligand binding, mouse urotensin (mUR2) (Mouse urotensin (mUR2); [125I]-Urotensin II): − (“−” indicates less than 50% inhibition at 10 μM)
A4: inhibition of radioligand binding, human melanocortin (MC4) (Human Melanocortin (MC4); [125I]-NDP-αMSH): + (“+” indicates greater than 50% inhibition at 10 μM)
A7: inhibition of radioligand binding, human μ-opioid (MOP) (Human μ-opioid (MOP); [3H]-Naloxone, 10 µM): + (“+” indicates greater than 50% inhibition at 10 μM)
A2: inhibition of radioligand binding, human κ-opioid (KOP) (Human κ-Opioid (KOP); [3H]-Diprenorphine): + (“+” indicates greater than 50% inhibition at 10 μM)

CO[C@H]1[C@H](O)[C@@H](COCc2cccc(O)c2)OC(OCCc2ccccc2)[C@@H]1NC(=O)CCCN (stereo partly shown) [compound 160]
A6 radioligand binding, percentage inhibition ([1]; [125I]-S36057): − (“−” indicates less than 50% inhibition at 10 μM)
A8 radioligand binding, percentage inhibition (Human neurokinin (NK1); [125I]-Substance P): + (“+” indicates greater than 50% inhibition at 10 μM)
A9 radioligand binding, percentage inhibition ([2]; [125I]-PYY): − (“−” indicates less than 50% inhibition at 10 μM)
A3 radioligand binding, percentage inhibition (Human Melanocortin (MC3); [125I]-NDP-αMSH): − (“−” indicates less than 50% inhibition at 10 μM)
A5 radioligand binding, percentage inhibition (Human melanocortin (MC5); [125I]-NDP-αMSH): − (“−” indicates less than 50% inhibition at 10 μM)
A1 radioligand binding, percentage inhibition (Human δ-opioid (DOP); [3H]-Bremazocine): − (“−” indicates less than 50% inhibition at 10 μM)
A10 radioligand binding, percentage inhibition (Human opioid (ORL1); [125I]-Nociceptin): − (“−” indicates less than 50% inhibition at 10 μM)
A11 radioligand binding, percentage inhibition (Mouse urotensin (mUR2); [125I]-Urotensin II): − (“−” indicates less than 50% inhibition at 10 μM)
A4 radioligand binding, percentage inhibition (Human Melanocortin (MC4); [125I]-NDP-αMSH): − (“−” indicates less than 50% inhibition at 10 μM)
A7 radioligand binding, percentage inhibition (Human μ-opioid (MOP); [3H]-Naloxone): − (“−” indicates less than 50% inhibition at 10 μM)
A2 radioligand binding, percentage inhibition (Human κ-Opioid (KOP); [3H]-Diprenorphine): − (“−” indicates less than 50% inhibition at 10 μM)

N=C(N)NCC(=O)N[C@H]1C(OCc2ccc(Cl)cc2)O[C@H](COCc2ccc(Cl)cc2)[C@@H](O)[C@@H]1OCc1ccc(-c2ccccc2)cc1 (stereo partly shown) [compound 521]
A6: inhibition of radioligand binding, human melanin-concentrating hormone (MCH1) ([1]; [125I]-S36057): + (“+” indicates greater than 50% inhibition at 10 μM)
A8: inhibition of radioligand binding, human neurokinin (NK1) (Human neurokinin (NK1); [125I]-Substance P): + (“+” indicates greater than 50% inhibition at 10 μM)
A9: inhibition of radioligand binding, human neuropeptide Y (NPY-Y1) ([2]; [125I]-PYY): − (“−” indicates less than 50% inhibition at 10 μM)
A3: inhibition of radioligand binding, human melanocortin (MC3) (Human Melanocortin (MC3); [125I]-NDP-αMSH): + (“+” indicates greater than 50% inhibition at 10 μM)
A5: inhibition of radioligand binding, human melanocortin (MC5) (Human melanocortin (MC5); [125I]-NDP-αMSH): + (“+” indicates greater than 50% inhibition at 10 μM)
A1: inhibition of radioligand binding, human δ-opioid (DOP) (Human δ-opioid (DOP); [3H]-Bremazocine): − (“−” indicates less than 50% inhibition at 10 μM)
A10: inhibition of radioligand binding, human opioid (ORL1) (Human opioid (ORL1); [125I]-Nociceptin, 10 µM): + (“+” indicates greater than 50% inhibition at 10 μM)
A11: inhibition of radioligand binding, mouse urotensin (mUR2) (Mouse urotensin (mUR2); [125I]-Urotensin II): − (“−” indicates less than 50% inhibition at 10 μM)
A4: inhibition of radioligand binding, human melanocortin (MC4) (Human Melanocortin (MC4); [125I]-NDP-αMSH): + (“+” indicates greater than 50% inhibition at 10 μM)
A7: inhibition of radioligand binding, human μ-opioid (MOP) (Human μ-opioid (MOP); [3H]-Naloxone): − (“−” indicates less than 50% inhibition at 10 μM)
A2: inhibition of radioligand binding, human κ-opioid (KOP) (Human κ-Opioid (KOP); [3H]-Diprenorphine): − (“−” indicates less than 50% inhibition at 10 μM)

CO[C@H]1[C@H](O)[C@@H](COCc2ccc(-c3ccccc3)cc2)OC(OCc2ccc3ccccc3c2)[C@@H]1NC(=O)CCNC(=N)N (stereo partly shown) [compound 67]
A6 radioligand binding inhibition ([1]; human MCH1 membranes): + (“+” indicates greater than 50% inhibition at 10 μM)
A8 radioligand binding inhibition (Human neurokinin (NK1); human neurokinin NK1 membranes): + (“+” indicates greater than 50% inhibition at 10 μM)
A9 radioligand binding inhibition ([2]; human NPY-Y1 membranes): − (“−” indicates less than 50% inhibition at 10 μM)
A3 radioligand binding inhibition (Human Melanocortin (MC3); human melanocortin MC3 membranes): + (“+” indicates greater than 50% inhibition at 10 μM)
A5 radioligand binding inhibition (Human melanocortin (MC5); human melanocortin MC5 membranes): + (“+” indicates greater than 50% inhibition at 10 μM)
A1 radioligand binding inhibition (Human δ-opioid (DOP); human δ-opioid (DOP) membranes): + (“+” indicates greater than 50% inhibition at 10 μM)
A10 radioligand binding inhibition (Human opioid (ORL1); human ORL1 membranes): + (“+” indicates greater than 50% inhibition at 10 μM)
A11 radioligand binding inhibition (Mouse urotensin (mUR2); mouse urotensin mUR2 membranes): − (“−” indicates less than 50% inhibition at 10 μM)
A4 radioligand binding inhibition (Human Melanocortin (MC4); human melanocortin MC4 membranes): + (“+” indicates greater than 50% inhibition at 10 μM)
A7 radioligand binding inhibition (Human μ-opioid (MOP); human μ-opioid (MOP) membranes): + (“+” indicates greater than 50% inhibition at 10 μM)
A2 radioligand binding inhibition (Human κ-Opioid (KOP); human κ-opioid (KOP) membranes): − (“−” indicates less than 50% inhibition at 10 μM)

CSC1O[C@H](COCc2ccc(Cl)cc2)[C@@H](O)[C@@H](OCc2ccc(Cl)cc2)[C@H]1NC(=O)CCNC(=N)N (stereo partly shown) [compound 272]
A6: inhibition of radioligand binding ([1]; [125I]-S36057, FlashPlate): − (“−” indicates less than 50% inhibition at 10 μM)
A8: inhibition of radioligand binding (Human neurokinin (NK1); [125I]-Substance P, filtration): + (“+” indicates greater than 50% inhibition at 10 μM)
A9: inhibition of radioligand binding ([2]; [125I]-PYY, FlashPlate): − (“−” indicates less than 50% inhibition at 10 μM)
A3: inhibition of radioligand binding (Human Melanocortin (MC3); [125I]-NDP-αMSH, FlashPlate): − (“−” indicates less than 50% inhibition at 10 μM)
A5: inhibition of radioligand binding (Human melanocortin (MC5); [125I]-NDP-αMSH, FlashPlate): + (“+” indicates greater than 50% inhibition at 10 μM)
A1: inhibition of radioligand binding (Human δ-opioid (DOP); [3H]-Bremazocine, FlashPlate): − (“−” indicates less than 50% inhibition at 10 μM)
A10: inhibition of radioligand binding (Human opioid (ORL1); [125I]-Nociceptin, FlashPlate): − (“−” indicates less than 50% inhibition at 10 μM)
A11: inhibition of radioligand binding (Mouse urotensin (mUR2); [125I]-Urotensin II, FlashPlate): − (“−” indicates less than 50% inhibition at 10 μM)
A4: inhibition of radioligand binding (Human Melanocortin (MC4); [125I]-NDP-αMSH, FlashPlate): + (“+” indicates greater than 50% inhibition at 10 μM)
A7: inhibition of radioligand binding (Human μ-opioid (MOP); [3H]-Naloxone, FlashPlate): − (“−” indicates less than 50% inhibition at 10 μM)
A2: inhibition of radioligand binding (Human κ-Opioid (KOP); [3H]-Diprenorphine, filtration): − (“−” indicates less than 50% inhibition at 10 μM)
